Assay results as given in patent publication US20140303164A1, “THERAPEUTIC COMPOUNDS” (Gilead Sciences, Inc., priority 2013, published 2014).

Experiments:
HIV-IIIb = assay: Test A: Antiviral Assay in MT4 Cells; type: cell-based, HIV-1; details: Human immunodeficiency virus 1, IIIB, MT4, 120 h; for inhibition at 0.2 µM: read-out: % inhibition at 0.2 μM; for inhibition at 2 µM: read-out: % inhibition at 2 μM
Procedure: Test A: Antiviral Assay in MT4 Cells
MT-4 cells were next mixed with HIV-IIIb at an m.o.i of 0.003 for 1 hour, after which time 35 μL of virus/cell mixture (2000 cells) was immediately added to each well containing 40 μL of diluted compound. The plates were then incubated at 37° C. for 5 days. […] Cell lysis was carried out by incubating at room temperature for 10 min and then chemiluminescence was read.

[1] = Test B: Cytotoxicity Assay; type: cell-based; details: human, uninfected MT-4 cells, same protocol as Test A
In short: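 Uninfected MT-4 cells (2000 per well) incubated with diluted compound at 37° C. for 5 days, following the antiviral protocol without HIV-IIIb.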

SMILES: CN(C)c1nn(CC(=O)N[C@@H](Cc2cc(F)cc(F)c2)c2nc(C#CC(C)(C)O)ccc2-c2ccc(Cl)c3c(NS(C)(=O)=O)nn(C)c23)c2c1[C@H]1C[C@H]1C2(F)F [Compound 161, N—((S)-1-(3-(4-chloro-1-methyl-3-(methylsulfonamido)-1H-indazol-7-yl)-6-(3-hydroxy-3-methylbut-1-yn-1-yl)pyridin-2-yl)-2-(3,5-difluorophenyl)ethyl)-2-((3b-S,4aR)-3-(dimethylamino)-5,5-difluoro-3b,4,4a,5-tetrahydro-1H-cyclopropa[3,4]cyclopenta[1,2-c]pyrazol-1-yl)acetamide]
- inhibition at 0.2 µM (HIV-IIIb): 84%
- inhibition at 2 µM (HIV-IIIb): 84%
- CC50 at 5 days [1]: 21.8 µM

SMILES: COC(=O)Nc1nn(CC(=O)N[C@@H](Cc2cc(F)cc(F)c2)c2nc(C#CC(C)(C)O)ccc2-c2ccc(Cl)c3c(NS(C)(=O)=O)nn(C)c23)c2c1[C@H]1C[C@H]1C2(F)F [Compound 162, methyl ((3bS,4aR)-1-(2-(((S)-1-(3-(4-chloro-1-methyl-3-(methylsulfonamido)-1H-indazol-7-yl)-6-(3-hydroxy-3-methylbut-1-yn-1-yl)pyridin-2-yl)-2-(3,5-difluorophenyl)ethyl)amino)-2-oxoethyl)-5,5-difluoro-3b,4,4a,5-tetrahydro-1H-cyclopropa[3,4]cyclopenta[1,2-c]pyrazol-3-yl)carbamate]
- inhibition at 0.2 µM (HIV-IIIb): 81%
- inhibition at 2 µM (HIV-IIIb): 81%
- CC50 at 5 days [1]: 22.4 µM

SMILES: CC(=O)Nc1nn(CC(=O)N[C@@H](Cc2cc(F)cc(F)c2)c2nc(C#CC(C)(C)O)ccc2-c2ccc(Cl)c3c(NS(C)(=O)=O)nn(C)c23)c2c1[C@H]1C[C@H]1C2(F)F [Compound 163, 2-((3bS,4aR)-3-acetamido-5,5-difluoro-3b,4,4a,5-tetrahydro-1H-cyclopropa[3,4]cyclopenta[1,2-c]pyrazol-1-yl)-N—((S)-1-(3-(4-chloro-1-methyl-3-(methylsulfonamido)-1H-indazol-7-yl)-6-(3-hydroxy-3-methylbut-1-yn-1-yl)pyridin-2-yl)-2-(3,5-difluorophenyl)ethyl)acetamide]
- inhibition at 0.2 µM (HIV-IIIb): 79%
- inhibition at 2 µM (HIV-IIIb): 86%
- CC50 at 5 days [1]: 8.85 µM

SMILES: CN(C)C(=O)c1nn(CC(=O)N[C@@H](Cc2cc(F)cc(F)c2)c2nc(C#CC(C)(C)O)ccc2-c2ccc(Cl)c3c(NS(C)(=O)=O)nn(C)c23)c2c1[C@H]1C[C@H]1C2(F)F [Compound 164, (3bS,4aR)-1-(2-(((S)-1-(3-(4-chloro-1-methyl-3-(methylsulfonamido)-1H-indazol-7-yl)-6-(3-hydroxy-3-methylbut-1-yn-1-yl)pyridin-2-yl)-2-(3,5-difluorophenyl)ethyl)amino)-2-oxoethyl)-5,5-difluoro-N,N-dimethyl-3b,4,4a,5-tetrahydro-1H-cyclopropa[3,4]cyclopenta[1,2-c]pyrazole-3-carboxamide]
- inhibition at 0.2 µM (HIV-IIIb): 96%
- inhibition at 2 µM (HIV-IIIb): 97%
- CC50 at 5 days [1]: 40.5 µM

SMILES: CNC(=O)c1nn(CC(=O)N[C@@H](Cc2cc(F)cc(F)c2)c2nc(C#CC(C)(C)O)ccc2-c2ccc(Cl)c3c(NS(C)(=O)=O)nn(C)c23)c2c1[C@H]1C[C@H]1C2(F)F [Compound 165, (3bS,4aR)-1-(2-(((S)-1-(3-(4-chloro-1-methyl-3-(methylsulfonamido)-1H-indazol-7-yl)-6-(3-hydroxy-3-methylbut-1-yn-1-yl)pyridin-2-yl)-2-(3,5-difluorophenyl)ethyl)amino)-2-oxoethyl)-5,5-difluoro-N-methyl-3b,4,4a,5-tetrahydro-1H-cyclopropa[3,4]cyclopenta[1,2-c]pyrazole-3-carboxamide]
- inhibition at 0.2 µM (HIV-IIIb): 72%
- inhibition at 2 µM (HIV-IIIb): 72%
- CC50 at 5 days [1]: 5.46 µM

SMILES: Cn1nc(NS(C)(=O)=O)c2c(Cl)ccc(-c3ccc(C#CC(C)(O)CO)nc3[C@H](Cc3cc(F)cc(F)c3)NC(=O)Cn3nc(C(F)F)c4c3C(F)(F)[C@@H]3C[C@H]43)c21 (stereo partly drawn) [Compound 166, N-((1S)-1-(3-(4-chloro-1-methyl-3-(methylsulfonamido)-1H-indazol-7-yl)-6-(3,4-dihydroxy-3-methylbut-1-yn-1-yl)pyridin-2-yl)-2-(3,5-difluorophenyl)ethyl)-2-((3b-S,4aR)-3-(difluoromethyl)-5,5-difluoro-3b,4,4a,5-tetrahydro-1H-cyclopropa[3,4]cyclopenta[1,2-c]pyrazol-1-yl)acetamide]
- inhibition at 0.2 µM (HIV-IIIb): 92%
- inhibition at 2 µM (HIV-IIIb): 92%
- CC50 at 5 days [1]: 24.4 µM

SMILES: Cc1c(CCO)c(C2CC2)nn1CC(=O)N[C@@H](Cc1cc(F)cc(F)c1)c1nc(C#CC(C)(C)O)ccc1-c1ccc(Cl)c2c(NS(C)(=O)=O)nn(C)c12 [Compound 167, (S)—N-(1-(3-(4 chloro-1-methyl-3-(methylsulfonamido)-1H-indazol-7-yl)-6-(3-hydroxy-3-methylbut-1-yn-1-yl)pyridin-2-yl)-2-(3,5-difluorophenyl)ethyl)-2-(3-cyclopropyl-4-(2-hydroxyethyl)-5-methyl-1H-pyrazol-1-yl)acetamide]
- inhibition at 0.2 µM (HIV-IIIb): 93%
- inhibition at 2 µM (HIV-IIIb): 93%
- CC50 at 5 days [1]: 34.1 µM

SMILES: Cn1nc(NS(C)(=O)=O)c2c(Cl)ccc(-c3ccc(-c4cnn(C(C)(C)C)c4)nc3[C@H](Cc3cc(F)cc(F)c3)NC(=O)Cn3nc(C(F)F)c4c3C(F)(F)[C@@H]3C[C@H]43)c21 [Compound 168B, N—((S)-1-(6-(1-(tert-butyl)-1H-pyrazol-4-yl)-3-(4-chloro-1-methyl-3-(methylsulfonamido)-1H-indazol-7-yl)pyridin-2-yl)-2-(3,5-difluorophenyl)ethyl)-2-((3b-S,4aR)-3-(difluoromethyl)-5,5-difluoro-3b,4,4a,5-tetrahydro-1H-cyclopropa[3,4]cyclopenta[1,2-c]pyrazol-1-yl)acetamide]
- inhibition at 0.2 µM (HIV-IIIb): 90%
- inhibition at 2 µM (HIV-IIIb): 90%
- CC50 at 5 days [1]: > 53.2 µM

SMILES: Cn1nc(NS(C)(=O)=O)c2c(Cl)ccc(-c3ccc(C#CC(O)(CF)CF)nc3[C@H](Cc3cc(F)cc(F)c3)NC(=O)Cn3nc(C(F)F)c4c3C(F)(F)[C@@H]3C[C@H]43)c21 [Compound 170, N—((S)-1-(3-(4-chloro-1-methyl-3-(methylsulfonamido)-1H-indazol-7-yl)-6-(4-fluoro-3-(fluoromethyl)-3-hydroxybut-1-yn-1-yl)pyridin-2-yl)-2-(3,5-difluorophenyl)ethyl)-2-((3b-S,4aR)-3-(difluoromethyl)-5,5-difluoro-3b,4,4a,5-tetrahydro-1H-cyclopropa[3,4]cyclopenta[1,2-c]pyrazol-1-yl)acetamide]
- inhibition at 0.2 µM (HIV-IIIb): 88%
- inhibition at 2 µM (HIV-IIIb): 88%
- CC50 at 5 days [1]: 17 µM

SMILES: CC(C)n1cc(-c2ccc(-c3ccc(Cl)c4c(NS(C)(=O)=O)nn(C)c34)c([C@H](Cc3cc(F)cc(F)c3)NC(=O)Cn3nc(C(F)(F)F)c4c3C(F)(F)[C@@H]3C[C@H]43)n2)cn1 [Compound 174, N—((S)-1-(3-(4-chloro-1-methyl-3-(methylsulfonamido)-1H-indazol-7-yl)-6-(1-isopropyl-1H-pyrazol-4-yl)pyridin-2-yl)-2-(3,5-difluorophenyl)ethyl)-2-((3bS,4aR)-5,5-difluoro-3-(trifluoromethyl)-3b,4,4a,5-tetrahydro-1H-cyclopropa[3,4]cyclopenta[1,2-c]pyrazol-1-yl)acetamide]
- inhibition at 0.2 µM (HIV-IIIb): 85%
- inhibition at 2 µM (HIV-IIIb): 85%
- CC50 at 5 days [1]: > 53.2 µM

SMILES: Cn1nccc1-c1ccc(-c2ccc(Cl)c3c(NS(C)(=O)=O)nn(C)c23)c([C@H](Cc2cc(F)cc(F)c2)NC(=O)Cn2nc(C(F)(F)F)c3c2C(F)(F)[C@@H]2C[C@H]32)n1 [Compound 175, N—((S)-1-(3-(4-chloro-1-methyl-3-(methylsulfonamido)-1H-indazol-7-yl)-6-(1-methyl-1H-pyrazol-5-yl)pyridin-2-yl)-2-(3,5-difluorophenyl)ethyl)-2-((3b-S,4aR)-5,5-difluoro-3-(trifluoromethyl)-3b,4,4a,5-tetrahydro-1H-cyclopropa[3,4]cyclopenta[1,2-c]pyrazol-1-yl)acetamide]
- inhibition at 0.2 µM (HIV-IIIb): 95%
- inhibition at 2 µM (HIV-IIIb): 95%
- CC50 at 5 days [1]: > 46.1 µM

SMILES: Cn1nc(NS(C)(=O)=O)c2c(Cl)ccc(-c3ccc(-c4ncccn4)nc3[C@H](Cc3cc(F)cc(F)c3)NC(=O)Cn3nc(C(F)(F)F)c4c3C(F)(F)[C@@H]3C[C@H]43)c21 [Compound 176, N—((S)-1-(3-(4-chloro-1-methyl-3-(methylsulfonamido)-1H-indazol-7-yl)-6-(pyrimidin-2-yl)pyridin-2-yl)-2-(3,5-difluorophenyl)ethyl)-2-((3b-S,4aR)-5,5-difluoro-3-(trifluoromethyl)-3b,4,4a,5-tetrahydro-1H-cyclopropa[3,4]cyclopenta[1,2-c]pyrazol-1-yl)acetamide]
- inhibition at 0.2 µM (HIV-IIIb): 100%
- inhibition at 2 µM (HIV-IIIb): 100%
- CC50 at 5 days [1]: 17.4 µM

SMILES: Cn1nc(NS(C)(=O)=O)c2c(Cl)ccc(-c3cc(-c4ccccc4)cnc3[C@H](Cc3cc(F)cc(F)c3)NC(=O)Cn3nc(C(F)F)c4c3C(F)(F)[C@@H]3C[C@H]43)c21 [Compound 177D, N—((S)-1-(3-(4-chloro-1-methyl-3-(methylsulfonamido)-1H-indazol-7-yl)-5-phenylpyridin-2-yl)-2-(3,5-difluorophenyl)ethyl)-2-((3b-S,4aR)-3-(difluoromethyl)-5,5-difluoro-3b,4,4a,5-tetrahydro-1H-cyclopropa[3,4]cyclopenta[1,2-c]pyrazol-1-yl)acetamide]
- inhibition at 0.2 µM (HIV-IIIb): 100%
- inhibition at 2 µM (HIV-IIIb): 100%
- CC50 at 5 days [1]: > 53.2 µM
